Source: patent US5747456A, “Continuous low-dose administration of parathyroid hormone or its agonist” (Beth Israel Deaconess Medical Center, priority 1996, dated 1998)
Non-standard residues stand in square brackets, D forms with d. Residues, ends and D or L forms follow the SMILES beside them. Nle = CCCC[C@H](N)C(=O)O

Columns and labels:
[1] = molecular target: T1, PTH/PTHrP receptor in SaOS-2 B10 cells (Homo sapiens, UniProt Q03431); assay: Competition binding of mono-125I-[Nle8,18,Tyr34(3-I125)]bPTH1-34 NH2 to SaOS-2 B10 cells; conditions: 2 hrs at room temperature, read-out: IC50 (half maximal inhibition of binding of mono-125I-[Nle8,18,Tyr34(3-I125)]bPTH1-34 NH2)
T1 construct: endogenous in cells; host or cells: SaOS-2 B10 cells (subclone of the human osteosarcoma line SaOS-2)
T1 sequence (Q03431 27-593): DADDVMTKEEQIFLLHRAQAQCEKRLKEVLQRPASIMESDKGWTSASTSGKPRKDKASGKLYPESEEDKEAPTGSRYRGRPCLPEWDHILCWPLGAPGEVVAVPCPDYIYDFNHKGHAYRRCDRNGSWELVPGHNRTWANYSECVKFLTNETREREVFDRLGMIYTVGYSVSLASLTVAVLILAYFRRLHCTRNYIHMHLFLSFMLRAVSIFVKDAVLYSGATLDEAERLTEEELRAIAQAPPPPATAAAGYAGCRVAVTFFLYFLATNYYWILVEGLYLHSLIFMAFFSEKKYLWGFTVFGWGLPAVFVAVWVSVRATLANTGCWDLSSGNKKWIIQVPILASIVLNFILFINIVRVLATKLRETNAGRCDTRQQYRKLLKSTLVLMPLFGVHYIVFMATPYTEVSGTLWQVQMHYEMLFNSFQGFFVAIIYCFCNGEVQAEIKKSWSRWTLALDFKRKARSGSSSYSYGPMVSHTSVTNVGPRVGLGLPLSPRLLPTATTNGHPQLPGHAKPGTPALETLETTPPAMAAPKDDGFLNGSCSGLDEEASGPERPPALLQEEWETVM
Procedure: SaOS-2 B10 cells were maintained in RPMI1640 medium supplemented with 10% fetal bovine serum (FBS) and 2 mM glutamine at 37° C. in a humidified atmosphere of 5% CO2 in air. The medium was changed every three or four days, and the cells were subcultured every week by trypsinization.
SaOs-2 B10 cells were maintained for four days after they had reached confluence. The medium was replaced with 5% FBS […] medium and incubated for 2 hrs at room temperature with 10×10^4 cpm mono-^125 -I-[Nle^8,18,Tyr^34 (3-I^125)]bPTH1-34 NH2 in the presence or absence of a competing tested PTH agonist. The cells were washed four times with ice-cold PBS and lysed with 0.1M NaOH, and the radioactivity associated with the cells was counted in a scintillation counter. Synthesis of the radiolabelled [Nle8,18. Tyr^34 (3-I^125)]bPTH1-34 NH2 was carried out as described in Goldman M E et al., Endocrinology, 1988, 123, 1468-1475.
The binding assay was conducted on Analogs I-IV and Analog V (i.e., [Nle^8, Nle^18, Tyr^34 ]bPTH1-34 NH2).

[2] = test system: adenylate cyclase in SaOS-2 B10 cells; assay: Adenylate cyclase activity (cyclic AMP) in SaOS-2 B10 cells; type: cell-based, human; conditions: 1 mM IBMX, 5 min incubation with analog, read-out: EC50 (half maximal stimulation of adenylate cyclase)
Procedure: The adenylate cyclase activity induced by each of Analogs I-V was also measured in SaOS-2 B10 cells as described previously (Rodan et al. 1983 J. Clin. Invest. 72;1511; Goldman et al. 1988 Endocrinology 123, 1468). Confluent SaOS-2 B10 cells in 24 wells plates were incubated 0.5 μCi[^3 H]adenine (26.9 Ci/mmol, New England Nuclear, Boston, Mass.) in fresh medium at 37° C. for 2 hrs, and washed twice with Hank's solution. The cells were treated with 1 mM IBMX [isobutylmethylxanthine, Sigma, St. Louis, Mo.] in fresh medium for 15 min, and a tested PTH analog was added to the medium to incubate for 5 min. The reaction was stopped by the addition of 1.2M TCA followed by sample neutralization with 4N KOH. Cyclic AMP was isolated by the two-column chromatographic method (see Salomon et al. 1974 Anal. Biochem. 58;541). The radioactivity was counted in a scintillation counter (Liquid scintillation counter 2200CA, PACKARD, Downers Grove, Ill.).

SMILES	IC50 [1] [nM]	EC50 [2] [nM]
CCCC[C@H](NC(=O)[C@H](CO)NC(=O)[C@H](CO)NC(=O)[C@H](CC(C)C)NC(=O)[C@H](Cc1c[nH]cn1)NC(=O)[C@H](CCCCN)NC(=O)CNC(=O)[C@H](CC(C)C)NC(=O)[C@H](CC(N)=O)NC(=O)[C@H](Cc1c[nH]cn1)NC(=O)[C@H](CCCC)NC(=O)[C@H](Cc1ccccc1)NC(=O)[C@H](CCC(N)=O)NC(=O)[C@@H](NC(=O)[C@H](CCC(=O)O)NC(=O)[C@H](CO)NC(=O)[C@@H](NC(=O)[C@H](C)N)C(C)C)[C@@H](C)CC)C(=O)N[C@@H](CCC(=O)O)C(=O)N[C@@H](CCCNC(=N)N)C(=O)N[C@H](C(=O)N[C@@H](Cc1ccccc1)C(=O)N[C@@H](Cc1c[nH]c2ccccc12)C(=O)N[C@@H](CC(C)C)C(=O)N[C@@H](CCCNC(=N)N)C(=O)N[C@@H](CCCCN)C(=O)N[C@@H](CCCCN)C(=O)N[C@@H](CC(C)C)C(=O)N[C@@H](CCC(N)=O)C(=O)N[C@@H](CC(=O)O)C(=O)N[C@H](C(=O)N[C@@H](Cc1c[nH]cn1)C(=O)N[C@@H](CC(N)=O)C(=O)N[C@@H](Cc1ccc(O)cc1)C(N)=O)C(C)C)C(C)C [Analog I, [Nle^8,18,Phe^22,Tyr^34]bPTH1-34 NH2] (H-AVSEIQF[Nle]HNLGKHLSS[Nle]ERVFWLRKKLQDVHNY-NH2; N-terminus assumed)	1.5	1.5
CCCC[C@H](NC(=O)[C@H](CO)NC(=O)[C@H](CO)NC(=O)[C@H](CC(C)C)NC(=O)[C@H](Cc1c[nH]cn1)NC(=O)[C@H](CCCCN)NC(=O)CNC(=O)[C@H](CC(C)C)NC(=O)[C@H](CC(N)=O)NC(=O)[C@H](Cc1c[nH]cn1)NC(=O)[C@H](CCCC)NC(=O)[C@H](Cc1ccccc1)NC(=O)[C@H](CCC(N)=O)NC(=O)[C@@H](NC(=O)[C@H](CCC(=O)O)NC(=O)[C@H](CO)NC(=O)[C@@H](NC(=O)[C@H](C)N)C(C)C)[C@@H](C)CC)C(=O)N[C@@H](CCCNC(=N)N)C(=O)N[C@@H](CCCNC(=N)N)C(=O)N[C@H](C(=O)N[C@@H](CCC(=O)O)C(=O)N[C@@H](Cc1c[nH]c2ccccc12)C(=O)N[C@@H](CC(C)C)C(=O)N[C@@H](CCCNC(=N)N)C(=O)N[C@@H](CCCCN)C(=O)N[C@@H](CCCCN)C(=O)N[C@@H](CC(C)C)C(=O)N[C@@H](CCC(N)=O)C(=O)N[C@@H](CC(=O)O)C(=O)N[C@H](C(=O)N[C@@H](Cc1c[nH]cn1)C(=O)N[C@@H](CC(N)=O)C(=O)N[C@@H](Cc1ccc(O)cc1)C(N)=O)C(C)C)C(C)C [Analog II, [Nle^8,18,Arg^19,Tyr^34]bPTH1-34 NH2] (H-AVSEIQF[Nle]HNLGKHLSS[Nle]RRVEWLRKKLQDVHNY-NH2; N-terminus assumed)	0.6	2
CCCC[C@H](NC(=O)[C@H](CO)NC(=O)[C@H](CO)NC(=O)[C@H](CC(C)C)NC(=O)[C@H](Cc1c[nH]cn1)NC(=O)[C@H](CCCCN)NC(=O)CNC(=O)[C@H](CC(C)C)NC(=O)[C@H](CC(N)=O)NC(=O)[C@H](Cc1c[nH]cn1)NC(=O)[C@H](CCCC)NC(=O)[C@H](Cc1ccccc1)NC(=O)[C@H](CCC(N)=O)NC(=O)[C@@H](NC(=O)[C@H](CCC(=O)O)NC(=O)[C@H](CO)NC(=O)[C@@H](NC(=O)[C@H](C)N)C(C)C)[C@@H](C)CC)C(=O)N[C@@H](CCC(=O)O)C(=O)N[C@@H](CCCNC(=N)N)C(=O)N[C@@H](CCCNC(=N)N)C(=O)N[C@@H](CCC(=O)O)C(=O)N[C@@H](Cc1c[nH]c2ccccc12)C(=O)N[C@@H](CC(C)C)C(=O)N[C@@H](CCCNC(=N)N)C(=O)N[C@@H](CCCCN)C(=O)N[C@@H](CCCCN)C(=O)N[C@@H](CC(C)C)C(=O)N[C@@H](CCC(N)=O)C(=O)N[C@@H](CC(=O)O)C(=O)N[C@H](C(=O)N[C@@H](Cc1c[nH]cn1)C(=O)N[C@@H](CC(N)=O)C(=O)N[C@@H](Cc1ccc(O)cc1)C(N)=O)C(C)C [Analog III, [Nle^8,18,Arg^21,Tyr^34]bPTH1-34 NH2] (H-AVSEIQF[Nle]HNLGKHLSS[Nle]ERREWLRKKLQDVHNY-NH2; N-terminus assumed)	0.3	0.2
CCCC[C@H](NC(=O)[C@H](CO)NC(=O)[C@H](CO)NC(=O)[C@H](CC(C)C)NC(=O)[C@H](Cc1c[nH]cn1)NC(=O)[C@H](CCCCN)NC(=O)CNC(=O)[C@H](CC(C)C)NC(=O)[C@H](CC(N)=O)NC(=O)[C@H](Cc1c[nH]cn1)NC(=O)[C@H](CCCC)NC(=O)[C@H](Cc1ccccc1)NC(=O)[C@H](CCC(N)=O)NC(=O)[C@@H](NC(=O)[C@H](CCC(=O)O)NC(=O)[C@H](CO)NC(=O)[C@@H](NC(=O)[C@H](C)N)C(C)C)[C@@H](C)CC)C(=O)N[C@@H](CCCNC(=N)N)C(=O)N[C@@H](CCCNC(=N)N)C(=O)N[C@@H](CCCNC(=N)N)C(=O)N[C@@H](CCC(=O)O)C(=O)N[C@@H](Cc1c[nH]c2ccccc12)C(=O)N[C@@H](CC(C)C)C(=O)N[C@@H](CCCNC(=N)N)C(=O)N[C@@H](CCCCN)C(=O)N[C@@H](CCCCN)C(=O)N[C@@H](CC(C)C)C(=O)N[C@@H](CCC(N)=O)C(=O)N[C@@H](CC(=O)O)C(=O)N[C@H](C(=O)N[C@@H](Cc1c[nH]cn1)C(=O)N[C@@H](CC(N)=O)C(=O)N[C@@H](Cc1ccc(O)cc1)C(N)=O)C(C)C [Analog IV, [Nle^8,18,Arg^19,21,Tyr^34]bPTH1-34 NH2] (H-AVSEIQF[Nle]HNLGKHLSS[Nle]RRREWLRKKLQDVHNY-NH2; N-terminus assumed)	0.3	0.5
CCCC[C@H](NC(=O)[C@H](CO)NC(=O)[C@H](CO)NC(=O)[C@H](CC(C)C)NC(=O)[C@H](Cc1c[nH]cn1)NC(=O)[C@H](CCCCN)NC(=O)CNC(=O)[C@H](CC(C)C)NC(=O)[C@H](CC(N)=O)NC(=O)[C@H](Cc1c[nH]cn1)NC(=O)[C@H](CCCC)NC(=O)[C@H](Cc1ccccc1)NC(=O)[C@H](CCC(N)=O)NC(=O)[C@@H](NC(=O)[C@H](CCC(=O)O)NC(=O)[C@H](CO)NC(=O)[C@@H](NC(=O)[C@H](C)N)C(C)C)[C@@H](C)CC)C(=O)N[C@@H](CCC(=O)O)C(=O)N[C@@H](CCCNC(=N)N)C(=O)N[C@H](C(=O)N[C@@H](CCC(=O)O)C(=O)N[C@@H](Cc1c[nH]c2ccccc12)C(=O)N[C@@H](CC(C)C)C(=O)N[C@@H](CCCNC(=N)N)C(=O)N[C@@H](CCCCN)C(=O)N[C@@H](CCCCN)C(=O)N[C@@H](CC(C)C)C(=O)N[C@@H](CCC(N)=O)C(=O)N[C@@H](CC(=O)O)C(=O)N[C@H](C(=O)N[C@@H](Cc1c[nH]cn1)C(=O)N[C@@H](CC(N)=O)C(=O)N[C@@H](Cc1ccc(O)cc1)C(N)=O)C(C)C)C(C)C [Analog V, [Nle^8, Nle^18, Tyr^34]bPTH1-34 NH2, reference compound] (H-AVSEIQF[Nle]HNLGKHLSS[Nle]ERVEWLRKKLQDVHNY-NH2; N-terminus assumed)	1.5	2
